The values below are quoted from earlier work in patent publication US20030027805A1, “Use of 1,4-androstadienedione as a method of increasing levels of the anabolic/androgenic steroid boldenone in humans” (priority 2000, published 2003).

The structures appear in SMILES notation. Several values for one entry are separate records, joined by “and”; a condition that tells them apart may be missing. Equal entries are not always repeated.

The conditions of this series: for excretion in 17-hydroxy form: urinary, after oral dosing, comparison reported in literature.

Consider `C[C@]12C=CC(=O)C=C1CC[C@@H]1[C@@H]2CC[C@]2(C)C(=O)CC[C@@H]12` [androstadienedione, 1,4-androstadiene-3,17-dione], for which the “excretion of 17beta-hydroxysteroid metabolites compared with 1-androstenedione” value (comparison by the same authors with later 1-androstenedione study) was “far more”. Further, the “total recovery of 17-OH steroids” value (human, two subjects, urine, within 24 hours after oral administration of 100 mg, boldenone conjugates plus other 17-beta hydroxysteroids) is 18.4 % of the given dose and 21.2 % of the given dose. Further, under “human, two subjects, within 24 hours after oral administration of 100 mg”, the “urinary recovery of boldenone conjugates” value is 7.1 % of the initial dosage and 11.1 % of the initial dosage.
As to `C[C@]12CCC(=O)C=C1CC[C@@H]1[C@@H]2CC[C@]2(C)C(=O)CC[C@@H]12` [androstenedione, reference compound], the “excretion in 17-hydroxy form” value was “only in very small amounts”.
For `C[C@]12CC[C@H]3[C@@H](CCC4=CC(=O)CC[C@@]43C)[C@@H]1CC[C@@H]2O` [testosterone, reference compound], the “excretion in 17-hydroxy form” value is “only in very small amounts”.
